In ChEMBL document CHEMBL3044753, “Polyamines May Modulate Both G Protein-Coupled Receptors and G Proteins” (Med Chem Res, 2004):
Activity calls are given as the source filed them. The calls are words filed in the database; no cut-off is given here.

Tests used:
Left cardiac atrium [1] = test: Negative ionotropic activity in electrically-paced Cavia porcellus (guinea pig) left atrium measured after 60 min by isometric transducer analysis in presence of dihydroergocristine; assay type: functional, tissue-based
Left cardiac atrium [2] = test: Negative ionotropic activity in electrically-paced Cavia porcellus (guinea pig) left atrium measured after 60 min by isometric transducer analysis in presence of DPCPX; assay type: functional, tissue-based
Left cardiac atrium [3] = test: Negative ionotropic activity in electrically-paced Cavia porcellus (guinea pig) left atrium measured after 60 min by isometric transducer analysis in presence of ANR 83; assay type: functional, tissue-based
Left cardiac atrium [4] = test: Negative ionotropic activity in electrically-paced Cavia porcellus (guinea pig) left atrium measured after 60 min by isometric transducer analysis in presence of benzalkonium; assay type: functional, tissue-based
Left cardiac atrium [5] = test: Negative ionotropic activity in electrically-paced Cavia porcellus (guinea pig) left atrium measured after 60 min by isometric transducer analysis in presence of prazosin; assay type: functional, tissue-based
[6] = molecular target: T1, Muscarinic acetylcholine receptor M2 (Homo sapiens) (UniProt P08172); test: Allosteric modulation of Homo sapiens (human) recombinant muscarinic M2 receptor expressed in CHO cells assessed as inhibition of carbachol-induced [35S]GTPgammaS binding; assay type: functional, cell-based
T1 sequence (whole entry): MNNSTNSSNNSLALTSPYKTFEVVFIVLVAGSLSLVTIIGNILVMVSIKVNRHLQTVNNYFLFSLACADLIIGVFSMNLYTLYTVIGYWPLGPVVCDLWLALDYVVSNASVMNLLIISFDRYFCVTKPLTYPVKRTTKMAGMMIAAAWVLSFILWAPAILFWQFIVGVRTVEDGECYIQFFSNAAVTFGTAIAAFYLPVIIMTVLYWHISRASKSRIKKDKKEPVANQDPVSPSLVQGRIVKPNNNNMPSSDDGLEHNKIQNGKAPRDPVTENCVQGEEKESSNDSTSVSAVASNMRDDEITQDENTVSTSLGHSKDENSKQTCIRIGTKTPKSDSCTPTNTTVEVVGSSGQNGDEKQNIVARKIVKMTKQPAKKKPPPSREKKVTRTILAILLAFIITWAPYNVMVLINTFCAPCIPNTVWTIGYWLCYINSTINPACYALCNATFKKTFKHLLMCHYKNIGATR

[7] = molecular target: T1, Muscarinic acetylcholine receptor M2 (Homo sapiens); test: Allosteric modulation of Homo sapiens (human) recombinant muscarinic M2 receptor expressed in CHO cells assessed as inhibition of N-[3H]methylscopalamine dissociation incubated at 1 hr post N-[3H]methylscopalamine addition measured after 5 min by filter binding assay; assay type: cell-based
[8] = molecular target: T2, Muscarinic acetylcholine receptor M5 (Homo sapiens) (UniProt P08912); test: Allosteric modulation of Homo sapiens (human) recombinant muscarinic M5 receptor expressed in CHO cells assessed as inhibition of carbachol-induced [35S]GTPgammaS binding; assay type: functional, cell-based
T2 sequence (whole entry): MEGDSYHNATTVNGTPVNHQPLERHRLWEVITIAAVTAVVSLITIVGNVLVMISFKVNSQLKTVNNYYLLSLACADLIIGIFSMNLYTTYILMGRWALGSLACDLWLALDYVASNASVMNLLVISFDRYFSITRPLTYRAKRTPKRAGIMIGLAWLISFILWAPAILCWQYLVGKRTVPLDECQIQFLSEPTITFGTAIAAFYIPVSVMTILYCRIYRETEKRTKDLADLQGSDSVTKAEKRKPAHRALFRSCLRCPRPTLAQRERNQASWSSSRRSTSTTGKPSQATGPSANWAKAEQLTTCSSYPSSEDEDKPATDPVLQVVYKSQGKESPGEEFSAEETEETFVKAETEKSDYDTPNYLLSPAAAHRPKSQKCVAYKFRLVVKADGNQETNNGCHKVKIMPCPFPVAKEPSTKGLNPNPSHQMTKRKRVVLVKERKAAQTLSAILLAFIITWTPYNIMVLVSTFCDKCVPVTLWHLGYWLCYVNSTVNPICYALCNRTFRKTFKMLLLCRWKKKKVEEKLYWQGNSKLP

[9] = molecular target: T3, Muscarinic acetylcholine receptor M4 (Homo sapiens) (UniProt P08173); test: Allosteric modulation of Homo sapiens (human) recombinant muscarinic M4 receptor expressed in CHO cells assessed as inhibition of carbachol-induced [35S]GTPgammaS binding; assay type: functional, cell-based
T3 sequence (whole entry): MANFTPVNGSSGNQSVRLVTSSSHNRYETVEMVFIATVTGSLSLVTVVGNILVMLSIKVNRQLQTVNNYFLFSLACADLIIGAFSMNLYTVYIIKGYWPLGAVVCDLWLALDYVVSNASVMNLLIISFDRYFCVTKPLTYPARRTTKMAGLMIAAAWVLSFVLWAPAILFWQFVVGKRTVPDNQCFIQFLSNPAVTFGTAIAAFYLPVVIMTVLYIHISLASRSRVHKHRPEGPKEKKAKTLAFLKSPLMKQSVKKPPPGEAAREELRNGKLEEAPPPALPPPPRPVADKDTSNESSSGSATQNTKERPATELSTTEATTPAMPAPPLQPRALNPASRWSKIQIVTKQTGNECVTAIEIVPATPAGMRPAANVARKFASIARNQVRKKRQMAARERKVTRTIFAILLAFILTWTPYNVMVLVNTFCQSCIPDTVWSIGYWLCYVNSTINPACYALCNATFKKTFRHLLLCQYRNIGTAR

Right cardiac atrium [10] = test: Negative ionotropic activity in electrically-paced Cavia porcellus (guinea pig) right atrium measured after 60 min by isometric transducer analysis in presence of benextramine; assay type: functional, tissue-based
Right cardiac atrium [11] = test: Negative ionotropic activity in electrically-paced Cavia porcellus (guinea pig) right atrium measured after 60 min by isometric transducer analysis in presence of AM 630; assay type: functional, tissue-based
Right cardiac atrium [12] = test: Negative ionotropic activity in electrically-paced Cavia porcellus (guinea pig) right atrium measured after 60 min by isometric transducer analysis in presence of AM 251; assay type: functional, tissue-based
Right cardiac atrium [13] = test: Negative ionotropic activity in electrically-paced Cavia porcellus (guinea pig) right atrium measured after 60 min by isometric transducer analysis in presence of naloxane; assay type: functional, tissue-based
Right cardiac atrium [14] = test: Negative ionotropic activity in electrically-paced Cavia porcellus (guinea pig) right atrium measured after 60 min by isometric transducer analysis in presence of dihydroergocristine; assay type: functional, tissue-based
Right cardiac atrium [15] = test: Negative ionotropic activity in electrically-paced Cavia porcellus (guinea pig) right atrium measured after 60 min by isometric transducer analysis in presence of DPCPX; assay type: functional, tissue-based
Right cardiac atrium [16] = test: Negative ionotropic activity in electrically-paced Cavia porcellus (guinea pig) right atrium measured after 60 min by isometric transducer analysis in presence of benzalkonium; assay type: functional, tissue-based
[17] = molecular target: T3, Muscarinic acetylcholine receptor M4 (Homo sapiens); test: Binding affinity to Homo sapiens (human) recombinant muscarinic M4 receptor expressed in CHO cells assessed as [35S]GTPgammaS binding; assay type: functional, cell-based
[18] = molecular target: T1, Muscarinic acetylcholine receptor M2 (Homo sapiens); test: Binding affinity to Homo sapiens (human) recombinant muscarinic M2 receptor expressed in CHO cells assessed as [35S]GTPgammaS binding; assay type: functional, cell-based
[19] = molecular target: Muscarinic acetylcholine receptor M3 (Homo sapiens) (UniProt P20309); test: Binding affinity to Homo sapiens (human) recombinant muscarinic M3 receptor expressed in CHO cells assessed as [35S]GTPgammaS binding; assay type: functional, cell-based
Chain of Muscarinic acetylcholine receptor M3 (Homo sapiens) (P20309 whole entry, looked up): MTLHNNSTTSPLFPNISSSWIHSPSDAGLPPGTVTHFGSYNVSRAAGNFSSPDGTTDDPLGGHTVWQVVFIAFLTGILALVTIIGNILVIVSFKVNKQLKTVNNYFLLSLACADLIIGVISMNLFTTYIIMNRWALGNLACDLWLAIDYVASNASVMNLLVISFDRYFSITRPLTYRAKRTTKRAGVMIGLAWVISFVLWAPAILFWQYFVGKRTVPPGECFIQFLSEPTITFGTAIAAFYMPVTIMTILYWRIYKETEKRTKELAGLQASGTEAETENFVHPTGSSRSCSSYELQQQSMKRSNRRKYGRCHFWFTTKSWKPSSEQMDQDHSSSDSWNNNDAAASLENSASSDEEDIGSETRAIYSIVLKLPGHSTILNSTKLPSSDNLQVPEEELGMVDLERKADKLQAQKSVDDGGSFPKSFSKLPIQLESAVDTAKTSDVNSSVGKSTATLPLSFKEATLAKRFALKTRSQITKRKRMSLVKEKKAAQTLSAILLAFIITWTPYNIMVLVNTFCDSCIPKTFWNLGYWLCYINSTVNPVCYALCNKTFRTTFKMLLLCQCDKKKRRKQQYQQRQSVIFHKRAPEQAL

Right cardiac atrium [20] = test: Negative […] activity in electrically-paced Cavia porcellus (guinea pig) right atrium assessed as effect on force measured after 60 min by isometric transducer analysis in presence of benextramine/4-DAMP mustard; assay type: functional, tissue-based; conditions: 1 h
Right cardiac atrium [21] = test: Negative […] activity in electrically-paced Cavia porcellus (guinea pig) right atrium assessed as effect on force measured after 60 min by isometric transducer analysis in absence of benextramine/4-DAMP mustard relative to N-dodecyl lysine amide; assay type: functional

Row | SMILES | Activity (Left cardiac atrium [1]) | Activity (Left cardiac atrium [2]) | Activity (Left cardiac atrium [3]) | Activity (Left cardiac atrium [4]) | Activity (Left cardiac atrium [5]) | Activity [6] | INH [7] [µM] | Activity [8] | Activity [9] | Activity (Right cardiac atrium [10]) | Activity (Right cardiac atrium [11]) | Activity (Right cardiac atrium [12]) | Activity (Right cardiac atrium [13]) | Activity (Right cardiac atrium [14]) | Activity (Right cardiac atrium [15]) | Activity (Right cardiac atrium [16]) | Activity [17] | Activity [18] | Activity [19] | EC50 (Right cardiac atrium [20]) [nM] | further results
1 | COc1ccccc1CN1CCC(C2CCN(C(=O)CCCCCCC(=O)N3CCC(C4CCN(Cc5ccccc5OC)CC4)CC3)CC2)CC1 [PIPERTRAMINE AMIDE] | Active | Active | Active | inactive | Active | Active | 1.71 | Active | Active | Active | Active | Active | Active | Active | Active | inactive | inactive | inactive | inactive | 3.16 | Efficacy (Right cardiac atrium [21]): 78%
2 | COc1ccccc1CN1CCC(C2CCN(CCCCCCCCN3CCC(C4CCN(Cc5ccccc5OC)CC4)CC3)CC2)CC1 [PIPERTRAMINE] | Active | Active | Active | inactive | Active | Active | 1.57 | Active | Active | Active | Active | Active | Active | Active | Active | inactive | inactive | inactive | inactive | 0.263 | Efficacy (Right cardiac atrium [21]): 71%
